The values that follow come from US5409946A, “Isoxazole, isothiazole and pyrazole compounds that enhance cognitive function” (Abbott Laboratories, priority 1993, dated 1995).

The target in this assay is neuronal nicotinic receptors. Briefly: Displacement of [3H]-MCC or [3H]-cytisine from neuronal nicotinic receptors, whole rat brain membranes. Format: binding. The following applies: Table 1, read-out: Nicotinic Receptor Ki. On the procedure:
Binding of [^3 H]-methylcarbamylcholine ([^3 H]-MCC) or [^3 H]-cytisine ([^3 H]-CYT) to nicotinic receptors was accomplished using crude synaptic membrane preparations from whole rat brain (Snyder and Enna, Brain Research, 1975, 100:81). Washed membranes were stored at -80° C. prior to use. Frozen aliquots were slowly thawed and resuspended in 20 volumes of buffer (containing: 120 mM NaCl, 5 mM KCl, 2 mM MgCl2, 2 mM CaCl2 and 50 mM Tris-Cl, pH 7.4 @4° C). After centrifuging at 20,000 X g for 15 minutes, the pellets were resuspended in 30 volumes of buffer. Homogenate (containing 125-150 μg protein) was added to triplicate tubes containing concentrations of test compound and [^3 H]-MCC (3 nM) in a final volume of 500 μL. Samples were incubated for 60 minutes at 4° C., then rapidly filtered through Whatman GF/B filters presoaked in 0.5% polyethylimine using 3×4 mL of ice-cold buffer. Alternately, homogenate and test compound were incubated for 75 min with [^3 H]-CYT (1.3 nM), then rapidly filtered, as described above. The filters are counted in 4 mL of Ecolume® (ICN). […] IC50 values were determined with the ALLFIT nonlinear least squares curve-fitting program and IC50 values were converted to Ki values using the Cheng and Prusoff correction (Ki =IC50 /(1+[ligand]/Kd of ligand)). Alternately, data were expressed as a percentage of the total specific binding.

The structures appear in SMILES notation. Counter-ions that a name gives are not always drawn. Like-named read-outs stand apart in the source and are kept apart here.

What is called Ki is a dissociation constant, usually derived from enzyme kinetics or from competition with a known ligand. Turning to `Cc1cc([C@H]2C[C@H](O)CN2C)on1` (relative stereo) [Example 21, 3-Methyl-5-(trans-4-hydroxy-1-methyl-2-pyrrolidinyl)-isoxazole oxalate salt], the Ki was 114 nM.

For `Cc1cc([C@H]2C[C@H](CF)CN2C)on1` (relative stereo) [Example 22, 3-Methyl-5-(trans-4-fluoromethyl-1-methyl-2-pyrrolidinyl)-isoxazole hydrochloride], the Ki amounted to 183 nM.

Consider `Cc1cc([C@H]2C[C@H](C)CN2C)on1` (relative stereo) [Example 24, 3-Methyl-5-(trans-1,4-dimethyl-2-pyrrolidinyl)-isoxazole oxalate salt], for which the Ki was 24 nM.

As to `Cc1cc([C@H]2CC[C@H](C)N2C)on1` (relative stereo) [Example 25, 3-Methyl-5-(trans-1,5-dimethyl-2-pyrrolidinyl)-isoxazole oxalate salt], the Ki came to 289 nM.

As to `Cc1cc([C@@H]2CCCN2)on1` [Example 1, 3-Methyl-5-(2(S)-pyrrolidinyl)-isoxazole oxalate salt], the Ki amounted to 289 nM.

On to `CCc1cc([C@@H]2CCCN2)on1` [Example 3, 3-Ethyl-5-(2(S)-pyrrolidinyl)-isoxazole oxalate salt], for which the Ki was found to be 621 nM.

As to `CN1CCC[C@H]1c1cc(Cc2ccccc2)no1` [Example 7, 3-Benzyl-5-(1-methyl-2(S)-pyrrolidinyl)-isoxazole oxalate salt], the Ki (oxalate salt) came out at 18 nM.

For `CN1CCC[C@H]1c1cc(Cc2ccccc2)no1` [Example 8, 3-Benzyl-5-(1-methyl-2(S)-pyrrolidinyl)-isoxazole hydrochloride salt], for the setting “hydrochloride salt”, the Ki is 13 nM.

Turning to `CCCc1cc([C@@H]2CCCN2C)on1` [Example 9, 5-(1-Methyl-2(S)-pyrrolidinyl)-3-propyl-isoxazole hyrochloride salt], the Ki is 14 nM.

On to `CCCCc1cc([C@@H]2CCCN2C)on1` [Example 10, 3-n-Butyl-5-(1-methyl-2(S)-pyrrolidinyl)-isoxazole hydrochloride salt], for which the Ki came out at 24 nM.

In the case of `Cc1cc([C@@H]2CCCN2C)on1` [Example 11, 3-Methyl-5-(1-methyl-2(S)-pyrrolidinyl)-isoxazole hydrochloride salt], the Ki (hydrochloride salt) turned out to be 3 nM.

`CCc1cc([C@@H]2CCCN2C)on1` [Example 12, 3-Ethyl-5-(1-methyl-2(S)-pyrrolidinyl)-isoxazole hydrochloride salt]: the Ki (hydrochloride salt) was 7 nM.

`CCN1CCC[C@H]1c1cc(C)no1` [Example 13, 5-(1-Ethyl-2(S)-pyrrolidinyl)-3-methyl-isoxazole hydrochloride salt]: the Ki came out at 34 nM.

Consider `Cc1cc([C@H]2CCCN2)on1` [Example 14], for which the Ki turned out to be 10 nM.

With `Cc1cc([C@H]2CCCN2)on1` [Example 15, 3-Methyl-5-(2(R)-pyrrolidinyl)-isoxazole benzoate salt], the Ki was found to be 7 nM.

For `Cc1cc([C@H]2CCCN2C)on1` [Example 16, 3-Methyl-5-(1-methyl-2(R)-pyrrolidinyl)-isoxazole hydrochloride salt], the Ki came out at 55 nM.

On to `CCc1cc([C@H]2CCCN2)on1` [Example 17, 3-Ethyl-5-(2(R)-pyrrolidinyl)-isoxazole oxalate salt], for which the Ki was 12 nM.

Take `Cc1cc([C@H]2CCCN2)sn1` [Example 19, 3-methyl-5-((2(R)-pyrrolidinyl)-isothiazole hydrochloride]: the Ki was 228 nM.

With `COCc1cc([C@@H]2CCCN2C)on1` [Example 20, 3-Methoxymethyl-5-(1-methyl-2(S)-pyrrolidinyl)-isoxazole fumarate salt], the Ki was determined as 22 nM.

Turning to `CN1CCC[C@H]1c1cc(Br)no1` [Example 27, 3-Bromo-5-(1-methyl-2(S)-pyrrolidinyl)-isoxazole hydrochloride], the Ki came out at 7.7 nM.

For `CCN1C[C@H](C)C[C@H]1c1cc(C)no1` [Example 28c, trans-5-(1-ethyl-4-methyl-2(S)-pyrrolidinyl)-3-methyl-isoxazole hydrochloride], the Ki came out at 21 nM.
